Assay results as given in publication PMC11167047 (Cell Death Discovery, 2024).

Tests used:
Assay in all cases: kinome screen (33PanQinase)
Assay type in all cases: biochemical
NEK9 = biological target: T1, NEK9 (Homo sapiens, UniProt Q8TD19)
T1 construct: purchased Reaction Biology Europe GmbH (formerly ProQinase)
T1 sequence (Q8TD19 1-979): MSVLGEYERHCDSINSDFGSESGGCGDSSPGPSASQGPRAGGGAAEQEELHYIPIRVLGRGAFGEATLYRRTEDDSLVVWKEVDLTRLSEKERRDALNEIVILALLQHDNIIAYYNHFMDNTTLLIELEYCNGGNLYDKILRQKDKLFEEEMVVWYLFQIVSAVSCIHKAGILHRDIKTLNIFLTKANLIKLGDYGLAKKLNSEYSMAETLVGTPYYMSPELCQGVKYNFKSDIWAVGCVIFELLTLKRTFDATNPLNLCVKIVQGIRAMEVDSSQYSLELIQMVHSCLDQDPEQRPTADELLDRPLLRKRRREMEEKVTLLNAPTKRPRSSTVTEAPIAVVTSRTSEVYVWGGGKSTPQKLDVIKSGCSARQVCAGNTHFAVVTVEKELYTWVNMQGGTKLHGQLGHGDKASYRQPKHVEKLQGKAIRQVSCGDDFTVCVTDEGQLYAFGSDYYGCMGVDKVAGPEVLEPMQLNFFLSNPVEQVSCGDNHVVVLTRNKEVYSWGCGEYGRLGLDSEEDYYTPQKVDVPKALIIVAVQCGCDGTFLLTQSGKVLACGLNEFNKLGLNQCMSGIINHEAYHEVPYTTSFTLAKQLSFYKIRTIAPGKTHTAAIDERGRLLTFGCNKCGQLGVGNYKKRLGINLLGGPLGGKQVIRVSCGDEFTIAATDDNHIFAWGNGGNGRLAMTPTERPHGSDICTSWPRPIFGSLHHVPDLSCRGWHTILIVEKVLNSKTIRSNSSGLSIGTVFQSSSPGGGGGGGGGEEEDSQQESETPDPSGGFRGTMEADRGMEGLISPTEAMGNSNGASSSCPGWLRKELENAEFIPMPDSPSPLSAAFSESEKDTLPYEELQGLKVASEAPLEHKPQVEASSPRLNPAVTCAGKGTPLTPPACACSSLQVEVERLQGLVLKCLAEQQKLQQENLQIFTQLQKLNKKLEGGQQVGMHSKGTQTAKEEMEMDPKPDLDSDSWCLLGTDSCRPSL
Experimental: (§1) The Kinome Screening was performed by Reaction Biology Europe GmbH (http://reactionbiology.com; Freiburg i. Br., Germany).

PKCε = biological target: T2, PKCε (Homo sapiens, UniProt Q02156)
T2 construct: purchased Reaction Biology Europe GmbH (formerly ProQinase)
T2 sequence (Q02156 1-737): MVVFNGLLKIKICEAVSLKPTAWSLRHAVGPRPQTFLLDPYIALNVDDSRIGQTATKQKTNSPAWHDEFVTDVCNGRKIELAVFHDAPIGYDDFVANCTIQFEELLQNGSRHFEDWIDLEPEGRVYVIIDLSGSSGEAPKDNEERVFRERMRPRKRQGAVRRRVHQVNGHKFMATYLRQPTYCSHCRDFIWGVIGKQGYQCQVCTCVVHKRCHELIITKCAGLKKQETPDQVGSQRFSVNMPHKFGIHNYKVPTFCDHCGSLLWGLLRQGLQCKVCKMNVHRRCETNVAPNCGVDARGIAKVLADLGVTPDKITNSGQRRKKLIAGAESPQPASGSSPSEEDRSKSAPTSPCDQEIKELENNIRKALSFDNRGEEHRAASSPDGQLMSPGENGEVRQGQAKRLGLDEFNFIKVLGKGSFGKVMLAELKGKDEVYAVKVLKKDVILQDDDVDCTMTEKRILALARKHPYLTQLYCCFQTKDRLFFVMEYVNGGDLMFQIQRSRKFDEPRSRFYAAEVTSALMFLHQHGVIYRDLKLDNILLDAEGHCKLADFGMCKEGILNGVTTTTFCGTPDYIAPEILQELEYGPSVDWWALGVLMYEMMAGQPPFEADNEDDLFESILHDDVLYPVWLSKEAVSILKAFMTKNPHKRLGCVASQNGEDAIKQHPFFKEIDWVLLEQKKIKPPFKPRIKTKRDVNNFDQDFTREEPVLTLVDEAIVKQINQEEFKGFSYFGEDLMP
Experimental: as §1

TYRO3 = biological target: T3, TYRO3 (Homo sapiens, UniProt Q06418)
T3 construct: purchased Reaction Biology Europe GmbH (formerly ProQinase)
T3 sequence (Q06418 41-890): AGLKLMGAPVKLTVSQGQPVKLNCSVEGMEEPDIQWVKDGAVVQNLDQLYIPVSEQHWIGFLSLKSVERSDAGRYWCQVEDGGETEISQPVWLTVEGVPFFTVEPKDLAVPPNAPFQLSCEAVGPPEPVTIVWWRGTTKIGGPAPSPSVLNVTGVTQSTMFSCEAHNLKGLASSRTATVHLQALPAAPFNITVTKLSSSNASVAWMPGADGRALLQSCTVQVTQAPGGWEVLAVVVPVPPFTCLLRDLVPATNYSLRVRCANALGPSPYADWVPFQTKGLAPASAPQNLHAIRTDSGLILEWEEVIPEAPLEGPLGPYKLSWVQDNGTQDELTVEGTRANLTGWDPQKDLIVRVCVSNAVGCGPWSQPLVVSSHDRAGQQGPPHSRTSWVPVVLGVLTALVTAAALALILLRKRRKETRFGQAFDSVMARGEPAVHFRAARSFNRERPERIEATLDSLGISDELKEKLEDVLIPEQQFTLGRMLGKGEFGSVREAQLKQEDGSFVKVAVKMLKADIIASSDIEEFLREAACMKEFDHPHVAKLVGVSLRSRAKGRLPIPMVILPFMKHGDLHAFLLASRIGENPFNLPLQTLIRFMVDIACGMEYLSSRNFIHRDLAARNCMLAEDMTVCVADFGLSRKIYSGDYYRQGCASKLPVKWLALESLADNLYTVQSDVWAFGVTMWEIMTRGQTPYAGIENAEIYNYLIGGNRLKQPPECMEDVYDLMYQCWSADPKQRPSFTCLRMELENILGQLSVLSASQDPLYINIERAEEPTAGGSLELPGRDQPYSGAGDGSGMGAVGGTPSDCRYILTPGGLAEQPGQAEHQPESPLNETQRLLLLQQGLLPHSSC
Experimental: as §1

SMILES	residual kinase activity (NEK9; 0.03 µM)	residual kinase activity (NEK9; 0.3 µM)	residual kinase activity (PKCε; 0.03 µM)	residual kinase activity (PKCε; 0.3 µM)	residual kinase activity (TYRO3; 0.03 µM)	residual kinase activity (TYRO3; 0.3 µM)	residual kinase activity (NEK9; 3 µM)	residual kinase activity (PKCε; 3 µM)	residual kinase activity (TYRO3; 3 µM)
COc1ccnc2[nH]cc(-c3cc(N)nc(N)c3)c12 [meriolin 16]	89 % of control	87 % of control	25 % of control	4 % of control	104 % of control	89 % of control	–	–	–
c1ccc(CNc2cc(-c3c[nH]c4ncccc34)ccn2)cc1 [meriolin 36]	–	88 % of control	–	5 % of control	–	94 % of control	67 % of control	1 % of control	64 % of control
